# Literature values as cited in paper PMC5007443, “TNIK inhibition abrogates colorectal cancer stemness” (Nature Communications, 2016).
# pIC50: −log10 of the molar value.
# What was measured:
# [1] = system: lung cancer cells; design: method as in PMID 25337707; details: cited from earlier work
# [2] = system: TNIK; design: method as in PMID 23232060; details: read-out: IC50, enzyme activity of TNIK; cited from earlier work
# [3] = system: Wnt signal; design: method as in PMID 23232060; details: read-out: IC50, Wnt signal-inhibitory effects; cited from earlier work
smiles,measurement,setting,value
Cc1ccc(C(=O)Nc2sc(Nc3ccccc3)nc2C(N)=O)cc1 [NCB-0005],EMT of lung cancer cells induced by TGF-β1,[1],inhibit
"COc1ccc(C#N)cc1-c1ccnc(Nc2ccc(N3CCOCC3)c(OC)c2)c1 [Compound 9, 4-methoxy-3-(2-(3-methoxy-4-morpholinophenylamino)pyridin-4-yl)benzonitrile]",pIC50,[2],8.10
same,pIC50,[3],< 5.70
